Reference: paper PMC10682951, “Structure-function and rational design of a spider toxin Ssp1a at human voltage-gated sodium channel subtypes” (Frontiers in Pharmacology, 2023)
Bridge positions count the residues as written; N and C are the ends. Peptide text beside a SMILES is read from it.

Legend:
Type in all cases: cell-based
hNaV1.7 = molecular target: T1, hNaV1.7 (Homo sapiens, UniProt Q15858); assay: Automated whole-cell patch-clamp (QPatch 16X), hNaV1.7; settings: HEK293 cells expressing hNaV1.7 + β1 subunit; QPatch 16X; holding −80 mV, step to 0 mV; peptide incubated 2 min; 0.1% BSA; mean, SEM and n (3-9)
T1 construct: host or cells: HEK293
In short: (§1)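 HEK293 cells stably expressing the channel (human subtypes with β1 subunit), held at −80 mV; 2 min peptide pre-incubation, then 20 ms steps to 0 mV after a 200 ms −120 mV conditioning pulse. Extracellular pH 7.3 with 20 mM TEA-Cl, CsF-based pipette solution, 0.1% BSA; IC50 from four-parameter Hill fit.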

hNaV1.2 = molecular target: T2, hNaV1.2 (Homo sapiens, UniProt Q99250); assay: Automated whole-cell patch-clamp (QPatch 16X), hNaV1.2; settings: for IC50: HEK293 cells expressing hNaV1.2 + β1 subunit, QPatch 16X, holding −80 mV, step to 0 mV, peptide incubated 2 min, 0.1% BSA, mean, SEM and n (2-7)
T2 construct: host or cells: HEK293
In short: as §1

hNaV1.3 = molecular target: T3, hNaV1.3 (Homo sapiens, UniProt Q9NY46); assay: Automated whole-cell patch-clamp (QPatch 16X), hNaV1.3; settings: HEK293 cells expressing hNaV1.3 + β1 subunit; QPatch 16X; holding −80 mV, step to 0 mV; peptide incubated 2 min; 0.1% BSA; mean, SEM and n (3-12)
T3 construct: host or cells: HEK293
In short: as §1

T3 sequence (Q9NY46 whole entry): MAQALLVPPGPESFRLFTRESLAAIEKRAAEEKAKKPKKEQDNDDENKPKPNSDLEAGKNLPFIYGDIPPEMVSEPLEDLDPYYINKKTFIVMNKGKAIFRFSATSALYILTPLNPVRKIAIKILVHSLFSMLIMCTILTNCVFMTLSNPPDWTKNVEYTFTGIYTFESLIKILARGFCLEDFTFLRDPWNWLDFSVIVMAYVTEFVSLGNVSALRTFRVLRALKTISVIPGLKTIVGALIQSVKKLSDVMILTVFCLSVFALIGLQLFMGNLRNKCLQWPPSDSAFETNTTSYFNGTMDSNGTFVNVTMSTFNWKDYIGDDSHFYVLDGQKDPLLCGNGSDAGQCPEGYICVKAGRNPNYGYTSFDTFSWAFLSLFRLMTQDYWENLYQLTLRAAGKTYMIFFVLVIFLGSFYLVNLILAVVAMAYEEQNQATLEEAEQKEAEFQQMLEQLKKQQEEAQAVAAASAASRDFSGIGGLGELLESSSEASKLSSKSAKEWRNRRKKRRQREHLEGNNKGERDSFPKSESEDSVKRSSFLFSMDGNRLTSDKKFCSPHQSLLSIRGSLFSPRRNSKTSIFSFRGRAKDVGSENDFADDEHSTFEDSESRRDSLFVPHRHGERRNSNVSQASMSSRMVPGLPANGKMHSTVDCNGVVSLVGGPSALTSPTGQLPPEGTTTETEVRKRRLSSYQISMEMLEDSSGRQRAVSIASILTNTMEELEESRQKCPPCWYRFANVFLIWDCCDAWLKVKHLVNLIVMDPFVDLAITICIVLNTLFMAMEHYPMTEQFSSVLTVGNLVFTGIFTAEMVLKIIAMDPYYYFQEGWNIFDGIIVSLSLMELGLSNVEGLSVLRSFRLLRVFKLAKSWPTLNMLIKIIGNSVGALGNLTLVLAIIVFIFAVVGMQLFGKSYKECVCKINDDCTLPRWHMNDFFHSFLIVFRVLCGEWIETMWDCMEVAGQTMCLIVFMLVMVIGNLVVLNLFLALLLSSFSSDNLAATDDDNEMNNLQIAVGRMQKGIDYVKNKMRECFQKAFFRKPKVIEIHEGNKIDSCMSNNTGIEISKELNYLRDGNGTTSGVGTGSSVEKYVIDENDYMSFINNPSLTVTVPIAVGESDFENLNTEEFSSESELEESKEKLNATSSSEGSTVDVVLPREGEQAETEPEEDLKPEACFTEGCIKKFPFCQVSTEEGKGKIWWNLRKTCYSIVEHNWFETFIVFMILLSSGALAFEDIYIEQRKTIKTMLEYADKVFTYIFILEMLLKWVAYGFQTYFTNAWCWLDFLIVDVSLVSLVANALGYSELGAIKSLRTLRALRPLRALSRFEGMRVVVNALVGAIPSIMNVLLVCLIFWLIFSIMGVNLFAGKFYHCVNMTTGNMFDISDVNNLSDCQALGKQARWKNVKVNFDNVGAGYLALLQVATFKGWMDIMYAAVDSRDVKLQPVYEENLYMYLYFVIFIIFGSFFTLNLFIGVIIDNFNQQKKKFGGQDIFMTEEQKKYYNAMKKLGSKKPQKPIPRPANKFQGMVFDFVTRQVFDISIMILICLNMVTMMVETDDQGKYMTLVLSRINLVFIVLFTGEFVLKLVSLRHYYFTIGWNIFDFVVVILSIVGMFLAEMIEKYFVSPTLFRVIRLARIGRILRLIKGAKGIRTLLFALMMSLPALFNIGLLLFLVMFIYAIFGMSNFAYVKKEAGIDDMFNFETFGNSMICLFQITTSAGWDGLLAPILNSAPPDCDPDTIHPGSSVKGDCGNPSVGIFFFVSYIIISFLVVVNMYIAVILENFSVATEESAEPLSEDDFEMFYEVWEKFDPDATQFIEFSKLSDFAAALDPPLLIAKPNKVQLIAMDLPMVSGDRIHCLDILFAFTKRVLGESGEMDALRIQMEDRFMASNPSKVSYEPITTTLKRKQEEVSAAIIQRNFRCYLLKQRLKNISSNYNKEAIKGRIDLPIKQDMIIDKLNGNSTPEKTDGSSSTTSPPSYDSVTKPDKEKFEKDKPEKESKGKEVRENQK
T3 sequence (Q07699 19-218, further chain): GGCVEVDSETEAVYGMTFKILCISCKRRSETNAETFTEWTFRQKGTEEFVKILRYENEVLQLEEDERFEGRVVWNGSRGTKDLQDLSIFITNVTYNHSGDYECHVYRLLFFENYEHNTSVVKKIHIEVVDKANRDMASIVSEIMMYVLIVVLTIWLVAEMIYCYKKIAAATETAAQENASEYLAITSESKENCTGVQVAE
T2 sequence (Q07699 19-218): as the sequence (Q07699 19-218, further chain) above
T2 sequence (Q99250 whole entry): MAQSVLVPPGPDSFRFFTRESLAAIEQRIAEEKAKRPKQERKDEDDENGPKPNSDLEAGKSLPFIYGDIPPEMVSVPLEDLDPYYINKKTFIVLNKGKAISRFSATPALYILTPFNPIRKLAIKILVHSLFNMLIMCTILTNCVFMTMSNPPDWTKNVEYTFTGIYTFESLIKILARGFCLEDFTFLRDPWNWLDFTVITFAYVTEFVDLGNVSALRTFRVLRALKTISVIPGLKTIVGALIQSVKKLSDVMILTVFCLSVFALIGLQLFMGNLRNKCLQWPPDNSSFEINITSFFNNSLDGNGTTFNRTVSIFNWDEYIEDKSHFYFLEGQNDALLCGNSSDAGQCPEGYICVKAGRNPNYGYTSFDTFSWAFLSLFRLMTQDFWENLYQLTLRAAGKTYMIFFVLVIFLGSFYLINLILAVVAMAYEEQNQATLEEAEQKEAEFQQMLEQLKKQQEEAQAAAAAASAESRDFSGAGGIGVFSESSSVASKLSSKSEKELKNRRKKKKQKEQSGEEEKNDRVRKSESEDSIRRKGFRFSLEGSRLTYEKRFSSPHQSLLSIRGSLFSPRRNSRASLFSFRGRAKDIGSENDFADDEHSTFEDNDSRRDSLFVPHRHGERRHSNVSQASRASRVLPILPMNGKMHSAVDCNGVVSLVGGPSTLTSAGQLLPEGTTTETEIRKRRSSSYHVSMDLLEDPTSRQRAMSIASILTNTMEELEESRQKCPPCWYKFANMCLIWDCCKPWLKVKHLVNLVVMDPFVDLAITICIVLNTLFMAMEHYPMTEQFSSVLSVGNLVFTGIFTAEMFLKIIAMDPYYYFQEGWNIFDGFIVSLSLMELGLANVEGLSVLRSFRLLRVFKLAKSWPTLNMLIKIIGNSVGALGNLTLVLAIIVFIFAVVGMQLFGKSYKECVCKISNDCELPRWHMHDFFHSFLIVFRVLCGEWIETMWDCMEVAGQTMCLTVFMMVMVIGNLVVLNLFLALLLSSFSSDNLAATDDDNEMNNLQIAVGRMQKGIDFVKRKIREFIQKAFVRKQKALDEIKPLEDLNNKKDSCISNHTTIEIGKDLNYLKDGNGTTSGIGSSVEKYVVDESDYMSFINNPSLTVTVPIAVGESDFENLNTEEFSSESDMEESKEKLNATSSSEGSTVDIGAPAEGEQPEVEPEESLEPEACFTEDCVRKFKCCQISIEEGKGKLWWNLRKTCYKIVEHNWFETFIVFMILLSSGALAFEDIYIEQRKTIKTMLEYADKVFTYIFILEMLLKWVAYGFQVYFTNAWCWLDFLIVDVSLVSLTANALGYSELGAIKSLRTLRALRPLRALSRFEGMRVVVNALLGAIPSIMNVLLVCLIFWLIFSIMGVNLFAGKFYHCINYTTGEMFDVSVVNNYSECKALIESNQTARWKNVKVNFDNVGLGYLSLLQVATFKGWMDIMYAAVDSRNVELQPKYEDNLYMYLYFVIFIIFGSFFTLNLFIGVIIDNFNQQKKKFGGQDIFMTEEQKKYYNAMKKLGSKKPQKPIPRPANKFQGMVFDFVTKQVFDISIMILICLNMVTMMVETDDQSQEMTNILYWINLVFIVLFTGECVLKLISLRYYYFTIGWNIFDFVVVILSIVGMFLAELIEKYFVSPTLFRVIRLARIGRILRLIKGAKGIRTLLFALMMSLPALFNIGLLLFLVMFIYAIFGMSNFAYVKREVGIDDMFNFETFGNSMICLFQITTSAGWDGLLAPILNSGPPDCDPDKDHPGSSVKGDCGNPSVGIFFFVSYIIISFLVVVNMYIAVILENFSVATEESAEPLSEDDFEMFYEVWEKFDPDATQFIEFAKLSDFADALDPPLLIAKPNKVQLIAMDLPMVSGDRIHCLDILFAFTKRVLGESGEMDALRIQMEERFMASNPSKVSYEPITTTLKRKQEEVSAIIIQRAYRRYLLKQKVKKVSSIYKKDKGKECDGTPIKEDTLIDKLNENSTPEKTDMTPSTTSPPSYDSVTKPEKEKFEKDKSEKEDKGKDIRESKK

Row | Structure (SMILES) | IC50 (hNaV1.7) [nM] | IC50 (hNaV1.2) [nM] | IC50 (hNaV1.3) [nM] | hNaV1.2-selectivity against hNaV1.3 (hNaV1.2; ratio of potencies hNaV1.3 / hNaV1.2) [fold]
1 | CC(C)C[C@H](NC(=O)[C@H](Cc1ccccc1)NC(=O)[C@H](Cc1ccc(O)cc1)NC(=O)[C@H](CCCNC(=N)N)NC(=O)[C@@H]1CSSC[C@@H]2NC(=O)[C@H](CCCCN)NC(=O)[C@H](CC(N)=O)NC(=O)[C@H](CC(N)=O)NC(=O)[C@H](CC(N)=O)NC(=O)[C@@H]3CCCN3C(=O)[C@H](CC(=O)O)NC(=O)[C@@H]3CSSC[C@H](NC(=O)[C@H](C(C)C)NC(=O)[C@H](Cc4ccc(O)cc4)NC(=O)CNC(=O)[C@H](CCC(=O)O)NC(=O)[C@H](CSSC[C@H](NC(=O)[C@H](CC(=O)O)NC(=O)CN)C(=O)N[C@@H](CC(C)C)C(=O)NCC(=O)N[C@@H](Cc4c[nH]c5ccccc45)C(=O)N[C@@H](Cc4ccccc4)C(=O)N[C@@H](CO)C(=O)NCC(=O)N3)NC2=O)C(=O)N[C@@H](Cc2c[nH]cn2)C(=O)N[C@@H](Cc2c[nH]c3ccccc23)C(=O)N[C@@H](CCCCN)C(=O)N[C@@H](Cc2ccc(O)cc2)C(=O)N2CCC[C@H]2C(=O)N[C@@H](Cc2c[nH]c3ccccc23)C(=O)N1)C(=O)O [D32F] | 203 | 219 | 162 | –
2 | CC(C)C[C@H](NC(=O)[C@H](CC(=O)O)NC(=O)[C@H](Cc1ccc(O)cc1)NC(=O)[C@H](CCCNC(=N)N)NC(=O)[C@@H]1CSSC[C@@H]2NC(=O)[C@H](CCCCN)NC(=O)[C@H](CC(N)=O)NC(=O)[C@H](CC(N)=O)NC(=O)[C@H](CC(N)=O)NC(=O)[C@@H]3CCCN3C(=O)[C@H](CC(=O)O)NC(=O)[C@@H]3CSSC[C@H](NC(=O)[C@H](C(C)C)NC(=O)[C@H](Cc4ccc(O)cc4)NC(=O)CNC(=O)[C@H](CCC(=O)O)NC(=O)[C@H](CSSC[C@H](NC(=O)[C@H](CC(=O)O)NC(=O)CN)C(=O)N[C@@H](CC(C)C)C(=O)NCC(=O)N[C@@H](Cc4c[nH]c5ccccc45)C(=O)N[C@@H](Cc4ccccc4)C(=O)N[C@@H](CO)C(=O)NCC(=O)N3)NC2=O)C(=O)N[C@@H](Cc2c[nH]cn2)C(=O)N[C@@H](Cc2c[nH]c3ccccc23)C(=O)N[C@@H](CCCCN)C(=O)N[C@@H](Cc2ccc(O)cc2)C(=O)N[C@@H](CCCNC(=N)N)C(=O)N[C@@H](Cc2c[nH]c3ccccc23)C(=O)N1)C(=O)O [P27R] | 141 | 77 | > 1000 | > 10
3 | CC(C)C[C@H](NC(=O)[C@H](CC(=O)O)NC(=O)[C@H](Cc1ccc(O)cc1)NC(=O)[C@H](CCCNC(=N)N)NC(=O)[C@@H]1CSSC[C@@H]2NC(=O)[C@H](CCCCN)NC(=O)[C@H](CC(N)=O)NC(=O)[C@H](CC(N)=O)NC(=O)[C@H](CC(N)=O)NC(=O)[C@@H]3CCCN3C(=O)[C@H](CC(=O)O)NC(=O)[C@@H]3CSSC[C@H](NC(=O)[C@H](C(C)C)NC(=O)[C@H](Cc4ccc(O)cc4)NC(=O)CNC(=O)CNC(=O)[C@H](CSSC[C@H](NC(=O)[C@H](CC(=O)O)NC(=O)CN)C(=O)N[C@@H](CC(C)C)C(=O)NCC(=O)N[C@@H](Cc4c[nH]c5ccccc45)C(=O)N[C@@H](Cc4ccccc4)C(=O)N[C@@H](CO)C(=O)NCC(=O)N3)NC2=O)C(=O)N[C@@H](Cc2c[nH]cn2)C(=O)N[C@@H](Cc2c[nH]c3ccccc23)C(=O)N[C@@H](CCCCN)C(=O)N[C@@H](Cc2ccc(O)cc2)C(=O)N2CCC[C@H]2C(=O)N[C@@H](Cc2c[nH]c3ccccc23)C(=O)N1)C(=O)O [E18G] | 276 | 119 | 406 | –
4 | CC(C)C[C@H](NC(=O)[C@H](CC(=O)O)NC(=O)[C@H](Cc1ccc(O)cc1)NC(=O)[C@H](CCCNC(=N)N)NC(=O)[C@@H]1CSSC[C@@H]2NC(=O)[C@H](CCCCN)NC(=O)[C@H](CC(=O)O)NC(=O)[C@H](CC(N)=O)NC(=O)[C@H](CC(N)=O)NC(=O)[C@@H]3CCCN3C(=O)[C@H](CC(=O)O)NC(=O)[C@@H]3CSSC[C@H](NC(=O)[C@H](C(C)C)NC(=O)[C@H](Cc4ccc(O)cc4)NC(=O)CNC(=O)[C@H](CCC(=O)O)NC(=O)[C@H](CSSC[C@H](NC(=O)[C@H](CC(=O)O)NC(=O)CN)C(=O)N[C@@H](CC(C)C)C(=O)NCC(=O)N[C@@H](Cc4ccccc4)C(=O)N[C@@H](Cc4ccccc4)C(=O)N[C@@H](CO)C(=O)NCC(=O)N3)NC2=O)C(=O)N[C@@H](Cc2c[nH]cn2)C(=O)N[C@@H](Cc2c[nH]c3ccccc23)C(=O)N[C@@H](CCCCN)C(=O)N[C@@H](Cc2ccc(O)cc2)C(=O)N2CCC[C@H]2C(=O)N[C@@H](Cc2c[nH]c3ccccc23)C(=O)N1)C(=O)O [W5F/N14D] (H-GDCLGFFSGCDPNNDKCCEGYVCHWKYPWCRYDL-OH; disulfide 3-18, 10-23, 17-30) | 391 | 735 | 1200 | –
5 | CC(C)C[C@H](NC(=O)[C@H](CC(=O)O)NC(=O)[C@H](Cc1ccc(O)cc1)NC(=O)[C@H](CCCNC(=N)N)NC(=O)[C@@H]1CSSC[C@@H]2NC(=O)[C@H](CCCCN)NC(=O)[C@H](CC(N)=O)NC(=O)[C@H](CC(N)=O)NC(=O)[C@H](CC(N)=O)NC(=O)[C@@H]3CCCN3C(=O)[C@H](CC(=O)O)NC(=O)[C@@H]3CSSC[C@H](NC(=O)[C@H](C(C)C)NC(=O)[C@H](Cc4ccc(O)cc4)NC(=O)CNC(=O)[C@H](Cc4ccccc4)NC(=O)[C@H](CSSC[C@H](NC(=O)[C@H](CC(=O)O)NC(=O)CN)C(=O)N[C@@H](CC(C)C)C(=O)NCC(=O)N[C@@H](Cc4c[nH]c5ccccc45)C(=O)N[C@@H](Cc4ccccc4)C(=O)N[C@@H](CO)C(=O)NCC(=O)N3)NC2=O)C(=O)N[C@@H](Cc2c[nH]cn2)C(=O)N[C@@H](Cc2c[nH]c3ccccc23)C(=O)N[C@@H](CCCCN)C(=O)N[C@@H](Cc2ccc(O)cc2)C(=O)N2CCC[C@H]2C(=O)N[C@@H](Cc2c[nH]c3ccccc23)C(=O)N1)C(=O)O [E18F] | 171 | 232 | 395 | –
6 | CC(C)C[C@H](NC(=O)[C@H](CC(=O)O)NC(=O)[C@H](Cc1ccc(O)cc1)NC(=O)[C@H](CCCNC(=N)N)NC(=O)[C@@H]1CSSC[C@@H]2NC(=O)[C@H](CCCCN)NC(=O)[C@H](CC(N)=O)NC(=O)[C@H](CC(N)=O)NC(=O)[C@H](CC(N)=O)NC(=O)[C@H](C)NC(=O)[C@H](CC(=O)O)NC(=O)[C@@H]3CSSC[C@H](NC(=O)[C@H](C(C)C)NC(=O)[C@H](Cc4ccc(O)cc4)NC(=O)CNC(=O)[C@H](CCC(=O)O)NC(=O)[C@H](CSSC[C@H](NC(=O)[C@H](CC(=O)O)NC(=O)CN)C(=O)N[C@@H](CC(C)C)C(=O)NCC(=O)N[C@@H](Cc4c[nH]c5ccccc45)C(=O)N[C@@H](Cc4ccccc4)C(=O)N[C@@H](CO)C(=O)NCC(=O)N3)NC2=O)C(=O)N[C@@H](Cc2c[nH]cn2)C(=O)N[C@@H](Cc2c[nH]c3ccccc23)C(=O)N[C@@H](CCCCN)C(=O)N[C@@H](Cc2ccc(O)cc2)C(=O)N2CCC[C@H]2C(=O)N[C@@H](Cc2c[nH]c3ccccc23)C(=O)N1)C(=O)O [P11A] | 120 | 208 | 600 | –
7 | CC(C)C[C@H](NC(=O)[C@H](CC(=O)O)NC(=O)[C@H](Cc1ccc(O)cc1)NC(=O)[C@H](CCCNC(=N)N)NC(=O)[C@@H]1CSSC[C@@H]2NC(=O)[C@H](CCCCN)NC(=O)[C@H](CC(N)=O)NC(=O)[C@H](CC(N)=O)NC(=O)[C@H](CC(N)=O)NC(=O)[C@@H]3CCCN3C(=O)[C@H](CC(=O)O)NC(=O)[C@@H]3CSSC[C@H](NC(=O)[C@H](C(C)C)NC(=O)[C@H](Cc4ccc(O)cc4)NC(=O)CNC(=O)[C@H](CCC(=O)O)NC(=O)[C@H](CSSC[C@H](NC(=O)[C@H](CC(=O)O)NC(=O)CN)C(=O)N[C@@H](C)C(=O)NCC(=O)N[C@@H](Cc4c[nH]c5ccccc45)C(=O)N[C@@H](Cc4ccccc4)C(=O)N[C@@H](CO)C(=O)NCC(=O)N3)NC2=O)C(=O)N[C@@H](Cc2c[nH]cn2)C(=O)N[C@@H](Cc2c[nH]c3ccccc23)C(=O)N[C@@H](CCCCN)C(=O)N[C@@H](Cc2ccc(O)cc2)C(=O)N2CCC[C@H]2C(=O)N[C@@H](Cc2c[nH]c3ccccc23)C(=O)N1)C(=O)O [L3A] | 170 | 154 | 311 | –
8 | CC(C)C[C@H](NC(=O)[C@H](CC(=O)O)NC(=O)[C@H](Cc1ccc(O)cc1)NC(=O)[C@H](CCCNC(=N)N)NC(=O)[C@@H]1CSSC[C@@H]2NC(=O)[C@H](CCCCN)NC(=O)[C@H](CC(N)=O)NC(=O)[C@H](CC(N)=O)NC(=O)[C@H](CC(N)=O)NC(=O)[C@@H]3CCCN3C(=O)[C@H](CC(=O)O)NC(=O)[C@@H]3CSSC[C@H](NC(=O)[C@H](C(C)C)NC(=O)[C@H](Cc4ccc(O)cc4)NC(=O)CNC(=O)[C@H](CCC(=O)O)NC(=O)[C@H](CSSC[C@H](NC(=O)[C@H](CC(=O)O)NC(=O)CN)C(=O)N[C@@H](CC(C)C)C(=O)NCC(=O)N[C@@H](Cc4c[nH]c5ccccc45)C(=O)N[C@@H](Cc4ccccc4)C(=O)N[C@@H](CO)C(=O)NCC(=O)N3)NC2=O)C(=O)N[C@@H](Cc2c[nH]cn2)C(=O)N[C@@H](Cc2c[nH]c3ccccc23)C(=O)N[C@@H](CCCCN)C(=O)N[C@@H](Cc2ccc(O)cc2)C(=O)N[C@@H](C)C(=O)N[C@@H](Cc2c[nH]c3ccccc23)C(=O)N1)C(=O)O [P27A] | 166 | 270 | > 3000 | –
